The values below come from patent US11717502B2, “Blood flow improver” (WAKUNAGA PHARMACEUTICAL CO., LTD., priority 2017, dated 2023).

Assay [1] concerns water immersion stressed rats. The assay can be described thus: Action of S1PC against decrease in tail skin blood flow in water immersion stressed rats (Test Example 1). It counts as in vivo, male Wistar rats. The protocol: Action of S1PC Against Decrease in Tail Skin Blood Flow in Water Immersion Stressed Rate
Eight-week-old male Wistar rats purchased from Japan SLC, Inc. (Hamamatsu City) were grouped by nines, and preliminarily bred for two weeks. During preliminary breeding, handling was performed on the rats, and the rats were bred in a constant environment at a temperature of 23±1° C., a humidity of 50±10%, and a light/dark cycle of 12 hours (light period: 7 to 19 o'clock), and freely fed with artificial diet (CE-2, from CLEA Japan, inc.) and sterilized tap water.
The administration was performed by forced oral administration using a disposable feeding needle, and the fluid volume to be administered was 10 mL per kilogram of body weight of rat. As a sample to be administered, approximately 15 mg of S1PC (a cis/trans mixture) manufactured in Production Example 2 was precisely weighed, and dissolved in 15 mL of purified water. This solution was used as a stock solution. The solution was properly diluted to give 6.5 mg/kg (body weight of rat) of dosage and the diluted solution was orally administered to each rat a single time. To each rat of a control group, a solvent (purified water) was orally administered in the same manner as described above.
(§1) The rats were allowed to stand still in a room conditioned at a temperature of 20±0.5° C. for 30 minutes or longer, and attached with a probe for blood flow measurement using a binding tape at a position 5 cm away from the base of tail under isoflurane anesthesia. The blood flow was measured for 5 minutes using a laser tissue blood flowmeter (FLO-C1, from Omegawave Inc.). Average blood flow for 3 minutes during which the stable blood flow was shown was determined as the tail skin blood flow of the individual. The blood flow before water immersion was measured, and then S1PC or purified water was orally administered to the rats. Two hours after the administration, the rats were immersed up to the xiphoid and below in water at 15° C. for 10 minutes, using a stainless-steel restraint cage. The tail skin blood flow after the water immersion stress was measured one hour after the end of water immersion stress.
Measured values were given as average±standard error.
The t-test was used for examination.

Assay [2] deals with water immersion stressed rats. Put plainly: Actions against depressed tail subcutaneous blood flow in water immersion stressed rats, compared between S1PC and SAC (Test Example 2). The settings on record: for Effect of improving the tail skin blood flow with respect to the control group: 6.5 mg/kg single oral administration two hours before water immersion stress, one hour after end of stress, Bonferroni correction. It is filed as in vivo, male Wistar rats. The protocol:
Actions against Depressed Tail Subcutaneous Blood Flow in Water Immersion Stressed Rats, Compared between S1PC and SAC
Seven-week-old male Wistar rats purchased from Japan SLC, Inc. (Hamamatsu City) were grouped by twelves, and preliminarily bred for two weeks. During preliminary breeding, handling was performed on the rats, and the rats were bred in a constant environment at a temperature of 23±1° C., a humidity of 50±10%, and a light/dark cycle of 12 hours (light period: 7 to 19 o'clock), and freely fed with artificial diet (CE-2, from CLEA Japan, inc.) and sterilized tap water.
The administration was performed by forced oral administration using a disposable feeding needle, and the fluid volume to be administered was 10 mL per kilogram of body weight of rat. As a sample to be administered, approximately 15 mg each of S1PC (a cis/trans mixture) manufactured in Production Example 2 and SAC were precisely weighed, and dissolved in 15 mL of purified water. These solutions were used as a stock solution. The solutions were properly diluted to give 6.5 mg/kg (body weight of rat) of dosage and the diluted solution was orally administered to each rat a single time. […]
as §1, with “individuals.” for “individual.”, “S1PC, SAC” for “S1PC”, “Two hours after the administration, the rats were immersed up to the xiphoid and below in water at 15° C. for 10 minutes, using a stainless-steel restraint cage.” left out
Measured values were given […] average±standard error. […]

As for `CC=CSC[C@H](N)C(=O)O` [S1PC, S-1-propenylcysteine], the “Effect of improving the tail skin blood flow with respect to the control group” value in assay [1] (6.5 mg/kg single oral administration two hours before water immersion stress, t-test) is recorded as “significant effect of improving the tail skin blood flow”; in assay [2], “showed a significant effect of improving the tail skin blood flow”. Further, the “Degree of decrease in tail skin blood flow due to water immersion stress” value in assay [1] (6.5 mg/kg single oral administration two hours before water immersion stress, versus control group) was “smaller as compared with the control group”. Further, in assay [1] (6.5 mg/kg single oral dose two hours before water immersion (15° C., 10 minutes), average ± standard error), the “Tail skin blood flow, one hour after end of water immersion stress” value is 2.21 ± 0.15 mL/min/100 g. Moreover, the “Tail skin blood flow, before water immersion stress” value in assay [1] (baseline before oral administration, average ± standard error, laser tissue blood flowmeter) is 2.76 ± 0.15 mL/min/100 g. Also, in assay [2] (6.5 mg/kg single oral dose each, one hour after end of water immersion stress, p<0.01), the “Tail skin blood flow, S1PC group compared with SAC group” value is recorded as “significantly higher value of tail skin blood flow, as compared with the SAC group”.

Regarding `C=CCSC[C@H](N)C(=O)O` [SAC, S-allylcysteine, reference compound], the “Effect of improving the tail skin blood flow with respect to the control group” value in assay [2] was “did not show a significant effect of improving the tail skin blood flow”.
